ChEMBL document CHEMBL5375989, “Pioneering 4,11-Dioxo-4,11-dihydro-1H-anthra[2,3-d]imidazol-3-ium Compounds as Promising Survivin Inhibitors by Targeting ILF3/NF110 for Cancer Therapy” (J Med Chem, 2023)
Activity calls are given as the source filed them. The rule behind the calls is not given here.

How the values were obtained:
[1] = Toxicity in BALB/c mouse assessed as disappearance of nuclei at 2 mg/kg by H and E staining based analysis; assay type: organism-based; details: in vivo
[2] = Toxicity in BALB/c mouse assessed as appearance of renal tubular necrosis in cortex at 2 mg/kg by H and E staining based analysis; assay type: organism-based; details: in vivo
[3] = Antiproliferative activity against human MRC5 cells assessed as inhibition of cell growth measured after 48 hrs by MTT assay; assay type: toxicity, cell-based; details: human, MRC5 cells
[4] = Selectivity index, ratio of IC50 for mouse L929 cells to IC50 for human A549 cells; assay type: toxicity; details: L929 cells and A549 cells, read-out: Ratio IC50
[5] = Drug distribution in BALB/C nude mouse heart xenografted with human A549 cells at 2 mg/kg measured after 2 to 6 hrs by UPLC-3Q analysis; assay type: ADME, organism-based; details: in vivo, time 2-6 hrs
[6] = Toxicity in BALB/c mouse assessed as appearance of condensed nuclei at 2 mg/kg by H and E staining based analysis; assay type: organism-based; details: in vivo
[7] = molecular target: T1, Interleukin enhancer-binding factor 3 (Homo sapiens, UniProt Q12906); experiment: Binding affinity to ILF3 (unknown origin) assessed as dissociation constant at upto 1 uM by SPR method
T1 sequence (Q12906 whole entry): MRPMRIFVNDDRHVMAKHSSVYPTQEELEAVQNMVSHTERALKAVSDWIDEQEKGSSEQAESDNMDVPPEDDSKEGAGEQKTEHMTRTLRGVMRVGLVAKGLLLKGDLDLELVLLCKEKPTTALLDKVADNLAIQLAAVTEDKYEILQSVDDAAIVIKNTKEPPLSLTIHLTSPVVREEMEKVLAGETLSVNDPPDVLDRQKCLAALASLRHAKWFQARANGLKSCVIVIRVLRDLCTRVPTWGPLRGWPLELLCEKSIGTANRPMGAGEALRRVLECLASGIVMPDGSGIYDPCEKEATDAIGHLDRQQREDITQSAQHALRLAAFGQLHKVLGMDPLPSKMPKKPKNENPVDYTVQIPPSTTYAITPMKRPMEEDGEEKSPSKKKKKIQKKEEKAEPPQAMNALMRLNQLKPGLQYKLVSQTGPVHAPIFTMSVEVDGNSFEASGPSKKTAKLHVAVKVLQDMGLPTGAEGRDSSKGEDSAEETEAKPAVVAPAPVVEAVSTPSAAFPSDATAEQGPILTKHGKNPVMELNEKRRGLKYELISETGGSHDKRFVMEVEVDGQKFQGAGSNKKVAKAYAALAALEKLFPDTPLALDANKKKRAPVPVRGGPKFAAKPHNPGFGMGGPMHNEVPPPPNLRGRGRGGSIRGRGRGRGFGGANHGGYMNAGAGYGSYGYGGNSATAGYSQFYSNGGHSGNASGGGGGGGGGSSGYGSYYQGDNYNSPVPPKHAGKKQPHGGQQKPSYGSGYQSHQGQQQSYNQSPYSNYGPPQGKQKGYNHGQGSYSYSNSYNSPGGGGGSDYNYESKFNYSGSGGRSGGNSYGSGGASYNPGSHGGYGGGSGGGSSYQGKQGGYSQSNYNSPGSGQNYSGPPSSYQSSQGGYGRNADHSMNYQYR

[8] = Toxicity in BALB/c mouse assessed as morphological changes with karyopyknosis in spleen at 2 mg/kg by H and E staining based analysis; assay type: organism-based; details: in vivo
[9] = Toxicity in BALB/c mouse assessed as morphological changes with karyorrhexis in spleen at 2 mg/kg by H and E staining based analysis; assay type: organism-based; details: in vivo
[10] = Antiproliferative activity against mouse NIH3T3 cells assessed as inhibition of cell growth measured after 48 hrs by MTT assay; assay type: toxicity, cell-based; details: mouse, NIH3T3 cells
[11] = Drug metabolism in BALB/C nude mouse kidney xenografted with human A549 cells at 2 mg/kg measured after 2 to 6 hrs by UPLC-3Q analysis; assay type: ADME, organism-based; details: in vivo, time 2-6 hrs
[12] = Drug uptake in Sprague-Dawley rat blood at 2 mg/kg measured after 2 hrs by UPLC-3Q analysis; assay type: ADME, organism-based; details: in vivo
[13] = Antiproliferative activity against human HUVEC cells assessed as inhibition of cell growth measured after 48 hrs by MTT assay; assay type: toxicity, cell-based; details: human, HUVEC cells
[14] = Toxicity in BALB/c mouse assessed as varying degree of multifocal alveolar luminal hemorrhage at 2 mg/kg by H and E staining based analysis; assay type: organism-based; details: in vivo
A549 [15] = experiment: Antitumor activity against human A549 cells xenografted in BALB/c nude mouse assessed as increase in apoptosis at 2 mg/kg measured after 14 days by tunel staining based analysis; assay type: functional, organism-based; details: time 14.0 day
A549 [16] = experiment: Antitumor activity against human A549 cells xenografted in BALB/c nude mouse assessed as decrease in tumor cell proliferation at 2 mg/kg measured after 14 days by Ki67 staining based analysis; assay type: functional, organism-based; details: time 14.0 day
A549 [17] = experiment: Antitumor activity against human A549 cells xenografted in BALB/c nude mouse assessed as inhibition of tumor growth at 2 mg/kg, sc administered every 2 days for 14 days; assay type: functional, organism-based; details: time 14.0 day
[18] = Toxicity in BALB/c mouse assessed as appearance of spotty necrosis of hepatocytes at 2 mg/kg by H and E staining based analysis; assay type: organism-based; details: in vivo
[19] = Toxicity in BALB/c nude mouse assessed as effect on body weight at 2 mg/kg, sc administered every 2 days for 14 days; assay type: organism-based; details: in vivo, 336 h, time 14 day
[20] = Toxicity in BALB/c nude mouse assessed as side effects at 2 mg/kg, sc administered every 2 days for 14 days; assay type: organism-based; details: in vivo, 336 h, time 14 day
[21] = Toxicity in BALB/c mouse assessed as appearance of severe damage to spleen tissue at 2 mg/kg by H and E staining based analysis; assay type: organism-based; details: in vivo
A549 [22] = experiment: Antitumor activity against human A549 cells xenografted in BALB/c nude mouse assessed as appearance of various size of tumor necrosis at 2 mg/kg measured after 14 days by H and E staining based analysis; assay type: functional, organism-based; details: time 14.0 day
A549 [23] = experiment: Antitumor activity against human A549 cells xenografted in BALB/c nude mouse assessed as decrease in tumor cell proliferation at 2 mg/kg measured after 14 days by PCNA staining based analysis; assay type: functional, organism-based; details: time 14.0 day
[24] = Toxicity in BALB/c mouse assessed as appearance of acidophilic degeneration of myocardial cells at 2 mg/kg by H and E staining based analysis; assay type: organism-based; details: in vivo
A549 [25] = experiment: Induction of apoptosis in human A549 cells assessed as necrotic cells at 0.25 uM measured after 48 hrs by annexin V and PI staining based flow cytometry analysis (reference value: 1.47%); assay type: functional
A549 [26] = experiment: Induction of apoptosis in human A549 cells assessed as necrotic cells at 0.04 uM measured after 48 hrs by annexin V and PI staining based flow cytometry analysis (reference value: 1.47%); assay type: functional
NCI-H460 = experiment: Antiproliferative activity against human NCI-H460 cells assessed as inhibition of cell growth measured after 48 hrs by MTT assay; assay type: functional, cell-based; details: Homo sapiens, NCI-H460, 48 h
A549 [27] = experiment: Induction of apoptosis in human A549 cells assessed as necrotic cells at 0.1 uM measured after 48 hrs by annexin V and PI staining based flow cytometry analysis (reference value: 1.47%); assay type: functional
BXPC-3 = experiment: Antiproliferative activity against human BXPC-3 cells assessed as inhibition of cell growth measured after 48 hrs by MTT assay; assay type: functional, cell-based; details: Homo sapiens, BXPC-3, 48 h
A549 [28] = experiment: Induction of apoptosis in human A549 cells assessed as viable cells at 0.04 uM measured after 48 hrs by annexin V and PI staining based flow cytometry analysis (reference value: 93.3%); assay type: functional
A549 [29] = experiment: Induction of apoptosis in human A549 cells assessed as late apoptotic cells at 0.25 uM measured after 48 hrs by annexin V and PI staining based flow cytometry analysis (reference value: 4.70%); assay type: functional
[30] = Antiproliferative activity against mouse L929 cells assessed as inhibition of cell growth measured after 48 hrs by MTT assay; assay type: toxicity, cell-based; details: mouse, L929 cells
A549 [31] = experiment: Induction of apoptosis in human A549 cells assessed as viable cells at 0.25 uM measured after 48 hrs by annexin V and PI staining based flow cytometry analysis (reference value: 93.3%); assay type: functional
A549 [32] = experiment: Induction of apoptosis in human A549 cells assessed as viable cells at 0.1 uM measured after 48 hrs by annexin V and PI staining based flow cytometry analysis (reference value: 93.3%); assay type: functional
A549 [33] = experiment: Induction of apoptosis in human A549 cells assessed as late apoptotic cells at 0.1 uM measured after 48 hrs by annexin V and PI staining based flow cytometry analysis (reference value: 4.70%); assay type: functional
A549 [34] = experiment: Induction of apoptosis in human A549 cells assessed as late apoptotic cells at 0.04 uM measured after 48 hrs by annexin V and PI staining based flow cytometry analysis (reference value: 4.70%); assay type: functional
143B = experiment: Antiproliferative activity against human 143B cells assessed as inhibition of cell growth measured after 48 hrs by MTT assay; assay type: functional, cell-based; details: Homo sapiens, 143B, 48 h
MCF7 = experiment: Antiproliferative activity against human MCF7 cells assessed as inhibition of cell growth measured after 48 hrs by MTT assay; assay type: functional, cell-based; details: MCF7, 48 h
HeLa = experiment: Antiproliferative activity against human HeLa cells assessed as inhibition of cell growth measured after 48 hrs by MTT assay; assay type: functional, cell-based; details: Homo sapiens, HeLa, 48 h
A549 [35] = experiment: Induction of apoptosis in human A549 cells assessed as early apoptotic cells at 0.04 uM measured after 48 hrs by annexin V and PI staining based flow cytometry analysis (reference value: 0.71%); assay type: functional
PANC-1 = experiment: Antiproliferative activity against human PANC-1 cells assessed as inhibition of cell growth measured after 48 hrs by MTT assay; assay type: functional, cell-based; details: Homo sapiens, PANC-1, 48 h
A549 [36] = experiment: cells; details: Homo sapiens, A549, 48 h
Description: Antiproliferative activity against human A549 cells assessed as inhibition of cell growth measured after 48 hrs by MTT assay

NCI-H1299 = experiment: Antiproliferative activity against human NCI-H1299 cells assessed as inhibition of cell growth measured after 48 hrs by MTT assay; assay type: functional, cell-based; details: Homo sapiens, NCI-H1299, 48 h
A549 [37] = experiment: Induction of apoptosis in human A549 cells assessed as early apoptotic cells at 0.25 uM measured after 48 hrs by annexin V and PI staining based flow cytometry analysis (reference value: 0.71%); assay type: functional
A549 [38] = experiment: Induction of apoptosis in human A549 cells assessed as early apoptotic cells at 0.1 uM measured after 48 hrs by annexin V and PI staining based flow cytometry analysis (reference value: 0.71%); assay type: functional
ASPC1 = experiment: Antiproliferative activity against human ASPC1 cells assessed as inhibition of cell growth measured after 48 hrs by MTT assay; assay type: functional, cell-based; details: aspc1
HepG2 = experiment: Antiproliferative activity against human HepG2 cells assessed as inhibition of cell growth measured after 48 hrs by MTT assay; assay type: functional, cell-based; details: Homo sapiens, HepG2, 48 h

Description for 5637: Antiproliferative activity against human 5637 cells assessed as inhibition of cell growth measured after 48 hrs by MTT assay
Description for TE-1: Antiproliferative activity against human TE-1 cells assessed as inhibition of cell growth measured after 48 hrs by MTT assay

## COCCn1c2c([n+](Cc3cnccn3)c1C)C(=O)c1ccccc1C2=O.[Br-] [SEPANTRONIUM BROMIDE]
[1]
  Activity: Toxic
[2]
  Activity: Toxic
[3]
  IC50 at 48 h: 1.94 µM
[4]
  selectivity ratio: 970
[5]
  Drug uptake: Active
[6]
  Activity: Toxic
[7]
  Kd: 0.571 µM
[8]
  Activity: Toxic
[9]
  Activity: Toxic
[10]
  IC50 at 48 h: 13.6 µM
[11]
  Drug metabolism: Metabolite_Detected
[12]
  Drug uptake: Not Active
[13]
  IC50 at 48 h: 0.92 µM
[14]
  Activity: Toxic

## COc1cccc2c1C(=O)c1c(O)c3c(c(O)c1C2=O)C[C@@](O)(C(=O)CO)C[C@@H]3O[C@H]1C[C@H](N)[C@H](O)[C@H](C)O1 [DOXORUBICIN]
A549 [15]
  Activity: Active
A549 [16]
  Activity: Active
A549 [17]
  Activity: Active
[18]
  Activity: Toxic
[19]
  Activity: Toxic
[20]
  Activity: Toxic
[21]
  Activity: Toxic
A549 [22]
  Activity: Active
A549 [23]
  Activity: Active
[24]
  Activity: Toxic

## Cn1c[n+](C)c2c1C(=O)c1cc3ccccc3cc1C2=O.[Br-]
A549 [25]
  Activity: 7.92%
TE-1
  IC50: 0.03 µM
A549 [26]
  Activity: 13.9%
NCI-H460
  IC50: 0.16 µM
A549 [27]
  Activity: 11.5%
BXPC-3
  IC50: 0.11 µM
A549 [28]
  Activity: 25.3%
A549 [29]
  Activity: 89.2%
[30]
  IC50 at 48 h: 13.6 µM
A549 [31]
  Activity: 2.43%
[3]
  IC50 at 48 h: 3.98 µM
A549 [32]
  Activity: 8.24%
A549 [33]
  Activity: 79.7%
A549 [34]
  Activity: 58.5%
143B
  IC50: 0.41 µM
5637
  IC50: 0.11 µM
MCF7
  IC50: 0.06 µM
HeLa
  IC50: 1.86 µM
[10]
  IC50 at 48 h: 14.2 µM
A549 [35]
  Activity: 1.6%
[13]
  IC50 at 48 h: 10.5 µM
PANC-1
  IC50: 0.09 µM
A549 [36]
  IC50: 0.01 µM
NCI-H1299
  IC50: 0.54 µM
A549 [37]
  Activity: 0.22%
A549 [38]
  Activity: 0.55%
ASPC1
  IC50: 0.11 µM
HepG2
  IC50: 0.36 µM
